According to patent publication US20210355532A1, “METHODS AND REAGENTS FOR DETECTING AND ASSESSING GENOTOXICITY” (TwinStrand Biosciences, Inc., priority 2018, published 2021):
“Also recorded” adds a separate entry of the source.

Assays:
Type in all cases: in vivo, mouse
[1] = test system: BigBlue® transgenic C57BL/6 male mice; experiment: Duplex Sequencing mutant frequency and spectrum in BigBlue transgenic mice (cII transgene and endogenous genes)
Description: Tissues were collected and frozen on study day 31. Liver and bone marrow were analyzed for mutants. DNA was isolated and mutants analyzed for cII mutant plaques using RecoverEase and Transpack methods described by Agilent Technologies. Duplex Sequencing was used to sequence cII and other endogenous genes for mutations in liver and bone marrow.
Genes evaluated and criteria used to select genes are as follows: (1) Polr1c (RNA polymerase), which is ubiquitously transcribed in all tissue types; (2) Rho (Rhodopsin), which is not expressed in any tissue besides retina; (3) Hp (Haptoglobin), which is highly expressed in liver, but almost nowhere else; (4) Ctnnb1 (Beta-catenin), which is most commonly mutated gene in human hepatocellular carcinoma; and (5) CII: 360 bp transgenic reporter gene present in ˜80 copies in BigBlue® mice.
FIGS. 3A-3D are box plot graphs showing mutant frequencies calculated for Duplex Sequencing (FIGS. 3A and 3B) and the BigBlue® cII plaque assay (FIGS. 3C and 3D) in liver and bone marrow following mutagen treatment as described above. MF for Duplex Sequencing was based on total mutants per duplex base-pair sequenced (n=5 mice/group). MF for BigBlue® was calculated as number of mutant plaques relative to number of […] (n=6 mice/group).

Tg.rasH2 mice = experiment: Duplex Sequencing mutant frequency and spectrum in Tg.rasH2 mice dosed with urethane; conditions: for Mutation Frequency: urethane day 1,3,5, sacrifice day 29, Duplex Sequencing
Source text: (§1) In this example, the impact of a urethane is examined in different mouse tissue types (lung, spleen, blood) in an FDA-approved cancer-predisposed mouse model: Tg.rasH2 (Saitoh et al. Oncogene 1990. PMID 2202951). This mouse contains ˜3 tandem copies of human Hras with an activating enhancer mutation to boost expression on one hemizygous allele. These mice are predisposed to splenic angiosarcomas and lung adenocarcinomas, and are routinely used for 6 month carcinogenicity studies to substitute for 2 year native animal studies. Tumors found in the mice have usually acquired activating mutations in one copy of the human Hras protooncogene. In this addition to the 4 native mouse genes (Rho, Hp, Ctnnb1, Polr1c), the native mouse Hras and human Hras transgene are also analyzed in this example.
(§2) In this example, Tg.rasH2 mice (n=5/group) were dosed with vehicle or a carcinogenic dose of urethane (day 1,3,5) and sacrificed on day 29 for mutation detection by Duplex Sequencing in target tissues (lung, spleen) and whole blood. The endogenous genes (Rho, Hp, Ctnnb1, Polr1c) and the native mouse and human Hras (trans)genes were also sequenced.
FIG. 8 is a bar graph showing mutant frequency (MF) of lung, spleen and blood samples for control and experimental animals subjected to urethane. In this analysis, every unique variant detected was counted as one mutation, which were summed per sample. This was divided by the total number of Duplex Bases sequenced and across the entire capture region. The number of events is noted above each sample. In total, across all 30 samples, 3,966,947,832 Duplex Sequenced base pairs were generated.
Referring to FIG. 9 and Table 1 together, differences between vehicle control (VC) and treatment groups were highly significant. A Welch's t-test (for unequal variances) was used to determine the significance of the mutagen treated tissue's mutant frequency over that of the control for that tissue. The slightly wider confidence intervals with blood reflects a lower average depth of sequencing in the blood VC samples in this particular example. It is anticipated that this can be corrected using the methods described herein.

[2] = test system: human HRAS transgene codon 61; experiment: Duplex Sequencing detection of clonal oncogenic mutations in human HRAS transgene of Tg.rasH2 mice; conditions: day 29
Source text: as §1, §2
FIG. 15A is a graph illustrating SNVs plotted over the genomic intervals for the exons captured from the Ras family of genes, including the human transgenic loci, in the Tg-rasH2 mouse model. Singlets are mutations found in a single molecule. Multiplets are an identical mutation identified within multiple molecules within the same sampler and may represent a clonal expansion event. The height of each point corresponds to the variant allele frequency (VAF) of each SNV, with the with the size of the point corresponds to the for multiplet observations only. The location and relative frequency of Ras family human cancer mutational hotspots in COSMIC are indicated below each gene. FIG. 15B is a graph illustrating single nucleotide variants (SNVs) aligning to exon 3 of the human HRAS transgene. Highlighted is the center residue in codon number 61 in exon 3 of human HRAS, the most common HRAS cancer-driving hotspot.

Structure (SMILES) | MF in 4 endogenous genes (Polr1c, rhodopsin, haptoglobin, beta-catenin) ([1]; BigBlue mice, liver and bone marrow) | Mutation spectrum, distinguishing mutation types ([1]; aggregated across all genes, all tissues, unsupervised cluster analysis) | Mutation load relative to controls ([1]; bone marrow and liver, cII transgene, BigBlue mice, study day 31) | Trinucleotide context hotspots (most vulnerable contexts) ([1]; trinucleotide spectra, BigBlue mice) | Fold Increase of mutation frequency over vehicle control (Tg.rasH2 mice; Blood) [x] | Mutation Frequency (Tg.rasH2 mice; Blood, Tg.rasH2 mice) | Fold Increase of mutation frequency over vehicle control (Tg.rasH2 mice; Lung) [x] | Mutation Frequency (Tg.rasH2 mice; Lung, Tg.rasH2 mice) | Fold Increase of mutation frequency over vehicle control (Tg.rasH2 mice; Spleen) [x] | Mutation Frequency (Tg.rasH2 mice; Spleen, Tg.rasH2 mice) | Trinucleotide (triplet) mutation spectrum, predominant mutation (Tg.rasH2 mice; lung, spleen, blood, Tg.rasH2 mice) | Variant allele frequencies of HRAS codon 61 mutation ([2]; four out of five treated lung samples) | Fraction of treated samples with T>A transversions at human oncogenic Hras codon 61 hotspot ([2]; lung samples) | Fraction of treated samples with T>A transversions at human oncogenic Hras codon 61 hotspot ([2]; splenic samples)
CCN(N=O)C(N)=O [ENU, N-ethyl-N-nitrosourea] | increased | preponderance of T→C, T→A, and C→T mutations | significantly increased relative to controls | GTS and GTG and GTC | – | – | – | – | – | – | – | – | – | –
CCOC(N)=O [Urethane, urethane] | – | – | – | – | 2.2 | 2.39e−07 | 7.5 | 5.04e−07 | 3.3 | 2.73e−07 | T:A→A:T within the motif “NTG” is shown as the most common mutation; also recorded: strong propensity for T→A and T→C mutations within the context of “NTG” | 0.1%-1.8% | ⅘ | ⅕
